Data: paper PMC11331526 (2024)

System: d(G5C5)2 (G5C5) (DNA, duplex) GGGGGCCCCC
Experiment: emission titration, Bard fit
Conditions: 50 mM potassium phosphate, pH 7, 298 K, table title per base pair, fit per nucleotide

Row | Kb (site size 3.4, text prints 10^5) | Kb (site size 2.6, text error ±0.6) | SMILES
1 | 9.4(±1.2) × 10^6 M^-1 |  | [Ru+2].c1ccc2c(c1)ccc1nc3c4cccnc4c4ncccc4c3nc12.c1cnc2c(ccc3nccnc32)n1.c1cnc2c(ccc3nccnc32)n1
2 |  | 2.5(±0.4) × 10^6 M^-1 | [Ru+2].c1ccc2cc3nc4c5cccnc5c5ncccc5c4nc3cc2c1.c1cnc2c(ccc3nccnc32)n1.c1cnc2c(ccc3nccnc32)n1
